# Test results published in patent US4921850A, “3-propenylcephem derivative” (Eisai Co., Ltd., priority 1986, dated 1990).
# Like-named read-outs stand apart in the source and are kept apart here.
# What was measured:
# Assay in all cases: Anti-bacterial activity (MIC), agar dilution
# Type in all cases: cell-based
# [1] = system: Morganella morganii EP-14; conditions: about 10^6 CFU/ml, 37° C.
# Experimental: (§1) MIC (μg/ml) were determined by an agar dilution method [Chemotherapy (Japan), 29, 76-79, 1981]. Overnight cultures of the bacterial strains in Mueller-Hinton broth were diluted to final concentration of about 10^6 CFU/ml, and 5 μl of each bacterial suspension was spotted onto Mueller-Hinton agar plates that contained twofold serial dilutions of antibiotics. MICs were measured after incubation for 18 hours at 37° C.
# Ser. marcescens ES-75 = system: Ser. marcescens ES-75
# Experimental: as §1
# Staph. aureus 209-P = conditions: Staph. aureus 209-P, agar dilution, about 10^6 CFU/ml, 18 hours, 37° C.
# Experimental: as §1
# Pseud. aeruginosa EP-01 = conditions: Pseud. aeruginosa EP-01, agar dilution, about 10^6 CFU/ml, 18 hours, 37° C.
# Experimental: as §1
# Escher. coli NIHJ = system: Escher. coli NIHJ
# Experimental: as §1
# Kleb. pneumoniae EK-6 = conditions: Kleb. pneumoniae EK-6, agar dilution, about 10^6 CFU/ml, 18 hours, 37° C.
# Experimental: as §1
# [2] = Morganella morganii, EP14, 18 h, read-out: MIC
# [3] = Serratia marcescens, ES75, 18 h, Ser. marcescens ES-75, agar dilution, about 10^6 CFU/ml, 18 hours, 37° C., read-out: MIC
# [4] = Staphylococcus aureus, 209P, 18 h, read-out: MIC
# [5] = Pseudomonas aeruginosa, EP01, 18 h, read-out: MIC
# [6] = Escherichia coli, 18 h, Escher. coli NIHJ, agar dilution, about 10^6 CFU/ml, 18 hours, 37° C., read-out: MIC
# [7] = Klebsiella pneumoniae, EK6, 18 h, read-out: MIC
# [8] = Ser. marcescens ES-75, agar dilution, about 10^6 CFU/ml, 18 hours, 37° C.
# [9] = Escher. coli NIHJ, agar dilution, about 10^6 CFU/ml, 18 hours, 37° C.
"MIC [1, 2] [µg/mL]",MIC (Ser. marcescens ES-75; [3]) [µg/mL],MIC (Staph. aureus 209-P; [4]) [µg/mL],MIC (Pseud. aeruginosa EP-01; [5]) [µg/mL],MIC (Escher. coli NIHJ; [6]) [µg/mL],MIC (Kleb. pneumoniae EK-6; [7]) [µg/mL],Structure (SMILES),MIC ([1]; 18 hours) [µg/mL],MIC (Ser. marcescens ES-75; [8]) [µg/mL],MIC (Staph. aureus 209-P) [µg/mL],MIC (Pseud. aeruginosa EP-01) [µg/mL],MIC (Escher. coli NIHJ; [9]) [µg/mL],MIC (Kleb. pneumoniae EK-6) [µg/mL],"MIC (Escher. coli NIHJ; Escherichia coli, 18 h) [µg/mL]","MIC (Ser. marcescens ES-75; Serratia marcescens, ES75, 18 h) [µg/mL]"
≤ 0.025,≤ 0.025,0.2,0.8,≤ 0.025,≤ 0.025,"C[N+]1(C/C=C/C2=C(C(=O)[O-])N3C(=O)[C@@H](NC(=O)/C(=N\OCF)c4nsc(N)n4)[C@H]3SC2)C[C@H](O)C[C@H]1CO (stereo partly drawn) [Example 8, 7β-[2-(5-Amino-1,2,4-thiadiazol-3-yl)-(Z)-2-fluoromethoxyiminoacetamido]-3-[(E)-3-(4R-hydroxy-2S-hydroxymethyl-1-methyl-1-pyrrolidinio)-1-propen-1-yl]-3-cephem-4-carboxylate]",,,,,,,,
,,,,,,"NC(=O)C[N+]1(C/C=C/C2=C(C(=O)[O-])N3C(=O)[C@@H](NC(=O)/C(=N\OCF)c4nsc(N)n4)[C@H]3SC2)CCC(O)C1 (stereo partly drawn) [Example 9-2, 7β-[2-(5-Amino-1,2,4-thiadiazol-3-yl)-(Z)-2-fluoromethoxyiminoacetamido]-3-[(E)-3-(1-carbamoylmethyl-3-hydroxy-1-pyrrolidinio)-1-propen-1-yl]-3-cephem-4-carboxylate]",≤ 0.025,≤ 0.025,0.4,0.8,≤ 0.025,≤ 0.025,,
,,,,,,"NC(=O)C[N+]1(C/C=C/C2=C(C(=O)[O-])N3C(=O)[C@@H](NC(=O)/C(=N\OCF)c4nsc(N)n4)[C@H]3SC2)CCC(O)C1 (stereo partly drawn) [Example 9-3, 7β-[2-(5-Amino-1,2,4-thiadiazol-3-yl)-(Z)-2-fluoromethoxyiminoacetamido]-3-[(E)-3-(1-carbamoylmethyl-3-hydroxy-1-pyrrolidinio)-1-propen-1-yl]-3-cephem-4-carboxylate]",≤ 0.025,≤ 0.025,0.4,0.8,≤ 0.025,≤ 0.025,,
≤ 0.025,≤ 0.025,0.4,1.56,0.05,≤ 0.025,Nc1nc(/C(=N/OCF)C(=O)N[C@@H]2C(=O)N3C(C(=O)[O-])=C(/C=C/C[N+]4(CCO)CCC(O)C4)CS[C@H]23)ns1 (stereo partly drawn) [Example 15-1],,,,,,,,
,,,,,,Nc1nc(/C(=N/OCF)C(=O)N[C@@H]2C(=O)N3C(C(=O)[O-])=C(/C=C/C[N+]4(CCO)CCC(O)C4)CS[C@H]23)ns1 (stereo partly drawn) [Example 15-2],≤ 0.025,≤ 0.025,0.4,1.56,≤ 0.025,≤ 0.025,,
≤ 0.025,≤ 0.025,0.2,0.8,≤ 0.025,≤ 0.025,Nc1nc(/C(=N/OCF)C(=O)N[C@@H]2C(=O)N3C(C(=O)[O-])=C(/C=C/C[N+]4(CCO)CCC[C@@H]4CO)CS[C@H]23)ns1 (stereo partly drawn) [Example 16],,,,,,,,
≤ 0.025,≤ 0.025,0.4,0.8,≤ 0.025,≤ 0.025,NC(=O)C[N+]1(C/C=C/C2=C(C(=O)[O-])N3C(=O)[C@@H](NC(=O)/C(=N\OCF)c4nsc(N)n4)[C@H]3SC2)CCC[C@@H]1CO (stereo partly drawn) [Example 17],,,,,,,,
≤ 0.025,0.05,0.2,1.56,≤ 0.025,≤ 0.025,Nc1nc(/C(=N/OCF)C(=O)N[C@@H]2C(=O)N3C(C(=O)[O-])=C(/C=C/C[N+]4(CCO)CCCC4)CS[C@H]23)ns1 [Example 20],,,,,,,,

Structure (SMILES),"MIC [1, 2] [µg/mL]",MIC (Ser. marcescens ES-75; [3]) [µg/mL],MIC (Staph. aureus 209-P; [4]) [µg/mL],MIC (Pseud. aeruginosa EP-01; [5]) [µg/mL],MIC (Escher. coli NIHJ; [6]) [µg/mL],MIC (Kleb. pneumoniae EK-6; [7]) [µg/mL],MIC ([1]; 18 hours) [µg/mL],MIC (Ser. marcescens ES-75; [8]) [µg/mL],MIC (Staph. aureus 209-P) [µg/mL],MIC (Pseud. aeruginosa EP-01) [µg/mL],MIC (Escher. coli NIHJ; [9]) [µg/mL],MIC (Kleb. pneumoniae EK-6) [µg/mL],"MIC (Escher. coli NIHJ; Escherichia coli, 18 h) [µg/mL]","MIC (Ser. marcescens ES-75; Serratia marcescens, ES75, 18 h) [µg/mL]"
N#CC[N+]1(C/C=C/C2=C(C(=O)[O-])N3C(=O)[C@@H](NC(=O)/C(=N\OCF)c4nsc(N)n4)[C@H]3SC2)CCCC1 [Example 14],≤ 0.025,0.05,0.2,0.8,,≤ 0.025,,,,,,,≤ 0.025,
NC(=O)C[N+]1(C/C=C/C2=C(C(=O)[O-])N3C(=O)[C@@H](NC(=O)/C(=N\OCF)c4nsc(N)n4)[C@H]3SC2)CCCC1 [Example 19],≤ 0.025,,0.2,0.8,≤ 0.025,≤ 0.025,,,,,,,,0.5
